Test results reported in patent US20060094059A1, “Methods for identifying new drug leads and new therapeutic uses for known drugs” (Odyssey Thera, Inc., priority 2004, published 2006).

Columns and labels:
Cofilin:LIMK2 = assay: Protein-fragment complementation assay Cofilin:LIMK2; assay type: cell-based, human; conditions: hit in Cofilin/LIMK2 assay; drugs screened at 10 micromolar
Text: To construct dynamic assays for protein-protein complexes, we used a protein-fragment complementation assay strategy (PCAs) in intact human cells. (A variety of other suitable assays, and reporter options, are described in detail below.) The principle of PCA is that complementary polypeptide fragments (F[1] and F[2]) of a reporter protein or enzyme will fold into an active form only if fused to two proteins which interact and bring the complementary fragments of the reporter protein into proximity. Reconstitution of the fragments of the reporter protein generates a fluorescent signal that can be quantified in intact cells, and the amount of the signal is proportional to the amount of the protein-protein complex used in constructing the assay. Given a suitable reporter type, the subcellular location of the complex can also be measured.
Reporter fragments for PCA were generated by oligonucleotide synthesis (Blue Heron Biotechnology, Bothell, Wash.), starting with the sequence of yellow fluorescent protein (YFP). First, oligonucleotides coding for polypeptide fragments YFP[1]and YFP[2] […] Next, PCR mutagenesis was used to generate the mutant fragments IFP[1] and IFP[2]. The IFP[1] fragment corresponds to YFP[1]-(F46L, F64L, M153T) and the IFP[2] fragment corresponds to YFP[2]-(V163A, S175G). […]

[1] = test system: phospho-ERK (MAPK) in the presence of VEGF; assay: Immunofluorescence assay phospho-ERK + VEGF; assay type: cell-based, human; conditions: FIG. 3G, compared with the vehicle alone
Experimental: Immunofluorescence was performed on drug-treated cells to assess the post-translational modification status of proteins involved in the pathways of interest. We constructed assays designed to measure the phosphorylation status of key signaling proteins in the absence and presence of a growth factor stimulus. A drug capable of blocking or inhibiting the pathway leading to the signaling protein would in principle cause a decrease in the phosphorylation of that signaling protein in response to the selected growth factor. Such a change in phosphorylation status could be measured by a decrease in fluorescence in the presence of the drug. […]
HEK293T cells were seeded at a density of 7,500/well in poly-D-lys coated, blackwalled 96 well plate (Greiner). […] Phosphorylated ERK was detected by incubating the fixed cells with rabbit phospho-ERK (T202/Y204)-specific antibodies (Cell Signaling Technologies) followed by Alexa488 conjugated goat anti-rabbit antibody (Molecular Probes). […] Fluorescence images were acquired on a Discovery-1 imaging station (Molecular Devices) as described above.
Background fluorescence due to nonspecific binding by the secondary antibody was established with the use of cells that were incubated with BSA/PBS and without primary antibodies. […]

With O=C(Nc1ccc([N+](=O)[O-])cc1Cl)c1cc(Cl)ccc1O [Niclosamide] the Assay activity (Cofilin:LIMK2) was “Cofilin/LIMK2,” and the “level of phospho-ERK (intensity of the fluorescence)” value [1] was “decrease in the level of phospho-ERK”.
